PubChem BioAssay (NCI)
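Dose response: 5 concentrations. Exposure: 48 h. Format: 96-well plates. Endpoint: linear interpolation; highest concentration if not reached. GI50: concentration for 50% inhibition of growth. TGI is the concentration that stops growth completely.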

Legend:
Assay in all cases: DTP human tumour cell line panel, 48 h
[1] = test system: CCRF-CEM leukemia
[2] = test system: OVCAR-5 ovarian
[3] = test system: TK-10 renal
[4] = test system: ACHN renal
[5] = test system: HOP-62 NSCLC
[6] = test system: MOLT-4 leukemia
[7] = test system: EKVX NSCLC
[8] = test system: NCI-H226 lung
[9] = test system: KM12 colon
[10] = test system: PC-3 prostate

| SMILES | TGI [1] [µM] | TGI [2] [µM] | TGI [3] [µM] | TGI [4] [µM] | TGI [5] [µM] | TGI [6] [µM] | TGI [7] [µM] | TGI [8] [µM] | TGI [9] [µM] | GI50 [1] [µM] | GI50 [2] [µM] | GI50 [5] [µM] | GI50 [10] [µM] | TGI [10] [µM] | GI50 [6] [µM] | GI50 [7] [µM] | GI50 [8] [µM] | GI50 [3] [µM] | GI50 [4] [µM] | GI50 [9] [µM] |
| --- | --- | --- | --- | --- | --- | --- | --- | --- | --- | --- | --- | --- | --- | --- | --- | --- | --- | --- | --- | --- |
| O/N=C1/C(=C/c2ccc(Oc3ccccc3)cc2)CCCC1C(NO)c1ccc(Oc2ccccc2)cc1 (stereo not given) | 61.2 | > 100 | > 100 | > 100 | > 100 | 33.2 | > 100 | > 100 | > 100 |  |  |  |  |  |  |  |  |  |  |  |
| Nc1nc2cc3ccc(C4CC(O)C(CO)O4)cc3cc2c(=O)[nH]1 (stereo not given) | > 100 | > 100 |  |  | > 100 | > 100 | > 100 | > 100 |  | 41.4 | > 100 | > 100 | > 100 | > 100 | > 100 | > 100 | > 100 |  |  |  |
| CC(=O)[O-].[Mn+3].[O-]c1ccccc1C=NCCN=Cc1ccccc1[O-] | > 100 | > 100 | > 100 | > 100 | > 100 | > 100 | > 100 | > 100 | > 100 | 25.1 | 96.4 | > 100 |  |  | 25.7 | > 100 | > 100 | > 100 | > 100 | 84.9 |
| O=S(=O)(SCc1ccccc1)C(c1ccccc1)c1ccccc1 | > 100 | > 100 | > 100 | > 100 | > 100 | 43.7 | > 100 | 54.5 | > 100 |  |  |  |  |  |  |  |  |  |  |  |
| CC1=C(C(=O)Nc2cc(=O)n(C)c(=O)n2C)C(c2ccc([N+](=O)[O-])cc2)C(C(=O)Nc2cc(=O)n(C)c(=O)n2C)=C(C)N1 | > 100 | > 100 | > 100 | > 100 | > 100 | > 100 | > 100 | > 100 | > 100 |  |  |  |  |  |  |  |  |  |  |  |
| Cc1[nH]c2ccccc2c1-c1cc(-c2cc(-c3c(C)[nH]c4ccccc34)nc(N)n2)nc(N)n1 |  | > 100 | > 100 | > 100 | > 100 | > 100 | > 100 | > 100 | > 100 |  |  |  |  | > 100 |  |  |  |  |  |  |
| CN(C)c1ncc(-c2ccc(C(F)(F)F)cc2)c(NC2CCCCCC2)n1 | 35.8 | 38.8 | > 100 | 31.2 | 61 | 34.7 |  | 28.8 | 63.3 | 16.4 | 18.2 | 24.5 | 20.2 | 87.1 | 14.8 |  | 12.6 | 40.6 | 16 | 20.5 |
| Cc1ccccc1C(=O)Oc1ccc(O)cc1 | > 100 | > 100 | > 100 | > 100 | > 100 | > 100 | > 100 | > 100 | > 100 |  |  |  |  |  |  |  |  |  |  |  |
| CC(=O)O[C@H]1CCC2[C@@H]3CCC4=C(O)C(=O)C(C#N)C[C@]4(C)C3CC[C@@]21C (stereo not given in full) | > 100 | > 100 | > 100 | > 100 | > 100 | > 100 | > 100 | > 100 | > 100 |  |  |  |  |  |  |  |  |  |  |  |
| COC(=O)c1c(O)c([N+](=O)[O-])cc2c1c1c(n2Cc2ccccc2)C(=O)c2ccccc2C1=O | > 100 | 66.7 | > 100 | > 100 | 49.8 |  | 82.9 | 62.9 | 78.5 | 15.8 | 28.6 | 21.3 | 15.4 | 53.9 |  | 22.9 | 26.4 | 18.7 | 29.8 | 21.5 |
| COC1=CC23CCCN2CCc2cc4c(cc2C3C1O)OCO4 (stereo not given) | > 100 | > 100 | > 100 | 60.1 |  | > 100 | > 100 | > 100 | > 100 |  |  |  |  | > 100 |  |  |  |  |  |  |
| CC#C/C(=N\OC[C@H]1COCCN1)c1ccc2ncnc(Nc3ccc(OCc4cccc(F)c4)c(Cl)c3)c2c1 | 3.85 | 4.27 | 1.48 |  | 11.3 | 3.91 | 2.44 | 40.3 |  | 1.73 | 1.65 | 3 | 1.81 | 3.98 | 1.8 | 0.343 | 12 | 0.0335 |  |  |
| Cc1nccc2c3ccc(OCc4cn(-c5ccc(Cl)cc5)nn4)cc3n(CCCc3ccccc3)c12 | > 33.3 | > 33.3 | > 33.3 | 8.5 |  | > 33.3 | > 33.3 | 9.12 | > 33.3 | 1.75 | 7.34 |  | 2.42 | 16.6 | 6.97 | 12.3 | 1.72 | 2 | 1.57 | 6.21 |
| CCN(CC)CCCC(C)Nc1nc(C)cc(Nc2ccc3nc(C)cc(N)c3c2)n1 (stereo not given) | 41.6 | > 100 | > 100 | > 100 | > 100 |  | > 100 | > 100 | 40.1 | 15.3 | 45.8 | 38.9 | 12.4 | 37.8 |  | 53.3 | > 100 | > 100 | > 100 | 19.3 |
| C#CCN(N=O)C(=O)NC(CCCNC(=O)OCc1ccccc1)C(=O)OCc1ccccc1 (stereo not given) | 52 | > 100 | > 100 | > 100 | > 100 | 65.5 | > 100 | > 100 | > 100 |  |  |  |  |  |  |  |  |  |  |  |
| CCOC(=O)C(=O)Nc1ccc(Cl)cc1C | > 100 | > 100 | > 100 | > 100 | > 100 | > 100 | > 100 | > 100 | > 100 |  |  |  |  |  |  |  |  |  |  |  |
| O=c1cc(-c2ccccc2)oc2cc(O)cc(O)c12 | 59.6 | 37.4 | 72.9 | 33.9 | > 100 | 61.1 | 72 | 58.1 | 39.6 |  |  |  |  |  |  |  |  |  |  |  |
